The test system of experiment [1] is dopamine release in the nucleus accumbens. As to the kind of experiment: In vivo microdialysis of nucleus accumbens dopamine (Example 3). The arrangement: species or system rat. Conditions: naloxone given after the 60 minute sample. The procedure:
Dopamine release in the nucleus accumbens is thought to mediate the “reward” associated with drugs of abuse. […] After 3 baseline samples (20 minute inter-sample interval), morphine was administered to all rats. Dialysis samples were collected at 20 minute intervals for 180 minutes. To test behavioral withdrawal and reversal of morphine-induced dopamine, all rats were administered the opioid antagonist naloxone after the 60 minute sample time was completed.

For experiment [2], the system named is interleukin-1 mRNA. The experiment is described as follows: mRNA analysis of brain nuclei by real-time PCR (Example 4). The following applies: morphine; dorsal and ventral periaqueductal grey region, FIG. 8. The experiment is classed as in vivo, rat.
Procedure: Following scoring of withdrawal behaviors animals received an intraperitoneal injection of 0.8 ml of 50 mg/ml sodium pentobarbital, and once anesthetized, animals were transcardially perfused. Half of each treatment group were perfused with saline and half with 4% paraformaldehyde. Spinal cord and brains were collected (saline perfusion for protein and mRNA quantification and paraformaldehyde perfusion for immunohistochemistry). Samples collected from saline perfused animals were flash frozen in liquid nitrogen and stored at −80° C. Paraformaldehyde perfused samples were stored in 4% paraformaldehyde for 48 hours and then transferred to 30% sucrose (0.1% azide) until tissue sectioning.
Amplification of cDNA was performed using the [sequence] […] Linearity and efficiency of PCR amplification were assessed using standard curves generated by increasing amounts of cDNA. SYBR green l fluorescence (PCR product formation) was monitored in real time using the MYIQ single color real-time PCR detection system (Bio-Rad). […] Linearity and efficiency of PCR amplification were assessed using standard curves generated by increasing amounts of cDNA. SYBR green 1 fluorescence (PCR product formation) was monitored in real time using the MYIQ single color real-time PCR detection system (Bio-Rad). […]
Experiment [3] has as its system microglial activation marker CD11b. The experiment is described as follows: Brain immunohistochemistry and densitometry of microglial activation marker (Example 4). The experiment is classed as in vivo, rat. The following applies: chronic morphine administration, FIG. 6.
Procedure: Immunoreactivity for OX-42 (antibody that recognizes complement type 3 receptors, e.g., CD11b) and/or glial fibrillary acidic protein (GFAP), microglial and astrocyte activation markers, respectively, were assessed. Sections (20 μm) were treated with 0.3% H2O2 in Tris-buffered saline (TBS) for 20 minutes at room temperature to suppress endogenous peroxidase activity. Sections were then incubated overnight at 4° C. in monoclonal mouse anti-rat OX-42 (1:100; Pharmingen, San Diego, Calif.) or monoclonal mouse anti-rat GFAP antibody (1:200; Chemicon, Temecula, Calif.) in TBS with 2% normal goat serum and 0.5% Triton-X-100. Subsequently, sections were incubated with the appropriate secondary biotinylated antibodies (1:400; Jackson ImmunoResearch, West Grove, Pa.) for 2 hours at room temperature, incubated in avidin -biotin complex solution (ABC; 1:200; Vector Laboratories, Burlingame, Calif.) for 2 hours at room temperature, followed by reaction with 0.5 mg/ml 3,3′-diaminobenzidine tetrahydrochloride (DAB; Sigma). Finally, sections were dried, dehydrated, and coverslipped with Permount. Staining was evaluated by light microscopy. Densitometry of immunohistochemical staining was subsequently evaluated using computer software (NIH image).

Molecules are shown by their SMILES.

We go through 2 compounds from US7915285B2, “Method for treating drug and behavioral addictions” (priority 2005, dated 2011).

On to `C=CCN1CC[C@]23c4c5ccc(O)c4O[C@H]2C(=O)CC[C@@]3(O)[C@H]1C5` [naloxone], for which, in experiment [1], the “morphine-induced dopamine release after opioid antagonist” value was “reversed the morphine-induced dopamine release”.

Turning to `CN1CC[C@]23c4c5ccc(O)c4O[C@H]2[C@@H](O)C=C[C@H]3[C@H]1C5` [morphine], in experiment [2], the “interleukin-1 mRNA” value is recorded as “dramatic increase in interleukin-1 mRNA in the dorsal, but not the ventral periaqueductal grey region”. In addition, the “CD11b staining after chronic administration” value in experiment [3] is on record as “visible upregulation of the microglia activation marker CD11b”.
